# Measured values taken from PubChem BioAssay AID180 (DTP/NCI, 2004).
# Where “and” joins values, the source holds several entries; their conditions need not be identical. Equal entries are not always repeated.
# Test system: BDF1 mice, Adenocarcinoma 755 s.c., tumor weight T/C
# Experiment: NCI In Vivo Anticancer Drug Screen. Data for tumor model Adenocarcinoma 755 (subcutaneous) in B6D2F1 (BDF1) mice
# Conditions: endpoint: mean tumor weight, higher = larger tumour
# Summary of the method: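 Readout: T/C, i.e. treated-group measurement over vehicle-control measurement. Endpoint is survival or tumor size in tumor-bearing mice given compound.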
# [1] = dose: 10.0 mg/kg/injection, schedule: Q01DX011 (ip), vehicle: carboxymethylcellulose (CMC)
# [2] = dose: 25.0 mg/kg/injection, schedule: Q01DX011 (ip), vehicle: carboxymethylcellulose (CMC)
# [3] = dose: 75.0 mg/kg/injection, schedule: Q01DX011 (ip), vehicle: carboxymethylcellulose (CMC)
compound,measurement,setting,value
c1nc(SC2CCCC2)c2[nH]cnc2n1,T/C,"dose: 0.62 mg/kg/injection, schedule: Q01DX011 (ip), vehicle: carboxymethylcellulose (CMC)",76 % of control
same,T/C,"dose: 0.62 mg/kg/injection, schedule: Q01DX011 (oral), vehicle: carboxymethylcellulose (CMC)",93 % of control
same,T/C,"dose: 1.25 mg/kg/injection, schedule: Q01DX011 (ip), vehicle: carboxymethylcellulose (CMC)",66 % of control
same,T/C,"dose: 2.5 mg/kg/injection, schedule: Q01DX011 (ip), vehicle: carboxymethylcellulose (CMC)",45 % of control
same,T/C,"dose: 2.5 mg/kg/injection, schedule: Q01DX011 (oral), vehicle: carboxymethylcellulose (CMC)",62 % of control
same,T/C,"dose: 5.0 mg/kg/injection, schedule: Q01DX011 (oral), vehicle: carboxymethylcellulose (CMC)",6 % of control
same,T/C,"dose: 5.2 mg/kg/injection, schedule: Q01DX011 (ip), vehicle: carboxymethylcellulose (CMC)",59 % of control
same,T/C,[1],6 % of control
same,T/C,"dose: 10.0 mg/kg/injection, schedule: Q01DX011 (oral), vehicle: carboxymethylcellulose (CMC)",3 % of control
same,T/C,"dose: 10.5 mg/kg/injection, schedule: Q01DX011 (ip), vehicle: carboxymethylcellulose (CMC)",20 % of control
same,T/C,"dose: 21.0 mg/kg/injection, schedule: Q01DX011 (ip), vehicle: carboxymethylcellulose (CMC)",6 % of control and 17 % of control
same,T/C,"dose: 21.0 mg/kg/injection, schedule: Q01DX011 (oral), vehicle: carboxymethylcellulose (CMC)",7 % of control
same,T/C,"dose: 42.0 mg/kg/injection, schedule: Q01DX011 (ip), vehicle: carboxymethylcellulose (CMC)",4 % of control
same,T/C,"dose: 42.5 mg/kg/injection, schedule: Q01DX011 (ip), vehicle: carboxymethylcellulose (CMC)",1 % of control
same,T/C,"dose: 84.0 mg/kg/injection, schedule: Q01DX011 (oral), vehicle: carboxymethylcellulose (CMC)",5 % of control
same,T/C,"dose: 85.0 mg/kg/injection, schedule: Q01DX011 (ip), vehicle: carboxymethylcellulose (CMC)",1 % of control and 2 % of control
same,T/C,"dose: 85.0 mg/kg/injection, schedule: Q01DX011 (oral), vehicle: carboxymethylcellulose (CMC)",2 % of control
same,T/C,"dose: 87.0 mg/kg/injection, schedule: Q01DX001 (ip), vehicle: carboxymethylcellulose (CMC)",43 % of control
same,T/C,"dose: 174.0 mg/kg/injection, schedule: Q01DX001 (ip), vehicle: carboxymethylcellulose (CMC)",44 % of control
same,T/C,"dose: 347.0 mg/kg/injection, schedule: Q01DX001 (ip), vehicle: carboxymethylcellulose (CMC)",25 % of control
same,T/C,"dose: 694.0 mg/kg/injection, schedule: Q01DX001 (ip), vehicle: carboxymethylcellulose (CMC)",24 % of control
CN(C)c1nc(S(=O)(=O)N(C)C)nc2nc[nH]c12,T/C,[2],115 % of control
same,T/C,[3],117 % of control
same,T/C,"dose: 225.0 mg/kg/injection, schedule: Q01DX011 (ip), vehicle: carboxymethylcellulose (CMC)",95 % of control
C[C@]12CC[C@H](O)C[C@H]1CC[C@@H]1[C@@H]2CC[C@]2(C)[C@@H](C3=CC(=O)OC3)CC[C@]12O,T/C,"dose: 5.0 mg/kg/injection, schedule: Q01DX011 (ip), vehicle: carboxymethylcellulose (CMC)",72 % of control
same,T/C,[1],67 % of control
same,T/C,[2],49 % of control
NC1C(O)C(O)C(Nc2ncnc3nc[nH]c23)OC1C(O)CO (centres undefined),T/C,"dose: 0.18 mg/kg/injection, schedule: Q## X000 (ip), vehicle: carboxymethylcellulose (CMC)",65 % of control
same,T/C,"dose: 0.35 mg/kg/injection, schedule: Q## X000 (ip), vehicle: carboxymethylcellulose (CMC)",65 % of control
same,T/C,"dose: 0.7 mg/kg/injection, schedule: Q## X000 (ip), vehicle: carboxymethylcellulose (CMC)",67 % of control
same,T/C,"dose: 1.35 mg/kg/injection, schedule: Q## X000 (ip), vehicle: carboxymethylcellulose (CMC)",107 % of control
Cc1ccc2ccccc2c1CSc1ncnc2nc[nH]c12,T/C,"dose: 10.0 mg/kg/injection, schedule: Q01DX011 (ip), vehicle: methylcellulose (MC)",38 % of control
same,T/C,"dose: 20.0 mg/kg/injection, schedule: Q01DX011 (ip), vehicle: methylcellulose (MC)",40 % of control
same,T/C,"dose: 40.0 mg/kg/injection, schedule: Q01DX011 (ip), vehicle: methylcellulose (MC)",11 % of control
same,T/C,"dose: 80.0 mg/kg/injection, schedule: Q01DX011 (ip), vehicle: methylcellulose (MC)",9 % of control
CCCCN(C)N=Nc1ccc(C(N)=O)cc1,T/C,"dose: 16.0 mg/kg/injection, schedule: Q01DX011 (ip), vehicle: carboxymethylcellulose (CMC)",14 % of control
same,T/C,"dose: 31.0 mg/kg/injection, schedule: Q01DX011 (ip), vehicle: carboxymethylcellulose (CMC)",27 % of control
same,T/C,"dose: 50.0 mg/kg/injection, schedule: Q01DX011 (ip), vehicle: carboxymethylcellulose (CMC)",25 % of control
same,T/C,[3],14 % of control
